Patent US12098118B2 (Regents of the University of Minnesota, priority 2018, dated 2024)
Read-outs that look alike come from different tables or passages of the source.

Columns and labels:
mice [1] = assay: development of chronic systemic morphine tolerance (s.c. morphine, warm water 52° C. tail flick test); format: in vivo; conditions: for development of systemic morphine tolerance: systemic co-administration with morphine (FIGS. 7B-D)
Experimental: (§1) Doses were administered t.i.d. every 8 hours for 4 days. On day 6, four cumulative doses of morphine were given subcutaneously to assess tolerance in the warm water (52° C.) tail flick test.

mice [2] = assay: development of central morphine tolerance (intrathecal morphine, warm water tail flick test); format: in vivo; conditions: for ED50 (nmol, i.t.): tail flick day 4
Experimental: On day 4, four cumulative doses of morphine were given intrathecally to assess tolerance in the warm water tail flick test.
as §1

mice [3] = assay: acute in vivo bioassay of spinal opioid analgesic tolerance (ENDO-2 pre-treatment, warm water immersion tail flick test)
From the text: To evaluate the effects of the compounds in opioid tolerance an acute in vivo bioassay of opioid analgesic tolerance was employed. In this instance, either a large dose of the mu opioid receptor selective neuropeptide ENDO-2 is given or vehicle. When the analgesic effects are no longer evident, a second analgesic dose of ENDO-2 is given. The second analgesic dose of ENDO-2 is effective in the group pre-treated with saline, but not in the group that was pre-treated with the large dose of ENDO-2. When agmatine or when one of the SSA is given together with the large pre-treatment dose of ENDO-2, the second analgesic dose of ENDO-2 is effective. In this bioassay, agmatine and most of the SSAs prevented the development of opioid tolerance.
Formula I compounds from Table 2 were evaluated for their impact on the development of opioid analgesic tolerance when dosed central (intrathecally) and systemically (intraperitoneally). […] When a high dose of ENDO-2 is intrathecally injected a subsequent analgesic dose is no longer effective (30 minutes later) (Stone et al., 1997). This is a model of opioid-induced analgesic tolerance.
When that second group received a second injection of ENDO-2 (same dose as in the SAL group), the analgesic effect was not observed. Analgesic tolerance to ENDO-2 was, therefore, induced. […] AG 4 nmol (third bar from left).

nerve-injured mice [4] = assay: rotarod assay of motor dysfunction and sedation; conditions: for rotarod performance: intravenously administered, doses effective in nerve-injured mice, 30 minutes post-injection
[5] = cardiovascular measures / heart rate after i.v. injection; conditions: in vivo
[6] = system: mice with chronic pain induced by nerve-injury; assay: spinal nerve injury-induced neuropathic pain, von Frey monofilament tactile hypersensitivity; format: in vivo
female mice = assay: oral oxycodone self-administration model of opioid addiction (active vs control lever); format: in vivo
Experimental: FIGS. 6A and 6B show an in vivo model of opioid addiction in mice. […] Open symbols represent the lever pressing of mice on the “control” lever that result in no reward. Solid symbols represent the lever pressing of mice on the “active lever” which results in delivery of a 70 μL volume of oxycodone into a receptacle. The mice lick or drink the opioid from the receptacle.
Formula I compounds were assessed for similar effects in a model of oral oxycodone self-administration. […] Standard enclosed operant conditioning chambers modeled opioid addiction where in response to a light cue, mice have an opportunity to choose between one of two levers. Pressing one lever (the “Active” lever) results in delivery of a small quantity of oxycodone to a drinking receptacle where the mouse can lick or drink the fluid. Pressing the other lever (termed “Control” lever) results in no reward. In this experiment, female mice were separated into two groups; both groups were trained to lever press for oxycodone reward after pressing the “Active” lever of a two lever choice. Initially one lever press results in one delivery of opioid fluid. Pressing the “control” lever offers no reward. […] On day 15, they were required to press the active lever 3 times to seek the reward. […] The mice were given six injections over a period of 8 days. […] Responses were monitored from Day 20-40 of the experiment. […]

rats = conditions: Morgan et al. 2002; cited from earlier work
[7] = in vivo
nerve-injured mice [8] = conditions: intrathecal, previously observed; cited from earlier work
[9] = morphine i.t. ED50 (interval in brackets) after pre-treatment Morphine (10 nmol, i.t.) + compound (10 nmol, i.t.) or VEH b.i.d. 3 days
[10] = delivered systemically, 100 mg/kg ip, with intrathecal ENDO-2 pre-treatment
[11] = co-administered intrathecally (it) with tolerance-inducing ENDO-2 pre-treatment, agmatine 4 nmol
[12] = delivered systemically, ip, dose not given
[13] = IV, 0.45, 1.35, 4.5 micromoles/kg, induction and maintenance phase, ipsilateral hindpaw

Row | SMILES | development of opioid analgesic tolerance to ENDO-2 (mice [3]; [10]) | development of opioid analgesic tolerance to ENDO-2 (mice [3]; [11]) | development of opioid analgesic tolerance to ENDO-2 (mice [3]; [12]) | impact on cardiovascular measures [5] | rotarod performance (nerve-injured mice [4]) | hindpaw withdrawal thresholds (von Frey) [6, 13] | development of systemic morphine tolerance (mice [1]) | further results
1 | CN1CC[C@]23c4c5ccc(O)c4O[C@H]2[C@@H](O)C=C[C@H]3[C@H]1C5 [Morphine, morphine, reference compound] | – | – | – | – | – | – | – | ED50 (mice [1]; Mus musculus, sc, 144 h, morphine s.c. ED50 after pre-treatment Morphine (10 mg/kg, s.c.) + compound (3 mg/kg s.c.) or VEH t.i.d. 4 days, tail flick day 6, read-out: ED50 (95% CI) (mg/kg, s.c.)): 24.9 mg/kg; ED50 (nmol, i.t.) (mice [2]; [9]): 10.84 (4.94, 23.82) nmol
2 | CCOC(=O)/N=C(/N)NCCCCN [J-7, 4-(2-(ethoxycarbonyl)guanidino) butan-1-aminium 2,2,2-trifluoroacetate] | prevented the development of opioid analgesic tolerance | – | – | – | – | – | – | development of opioid analgesic tolerance to ENDO-2 (mice [3]; systemically delivered, 10 mg/kg dose): prevented the development of opioid analgesic tolerance
3 | CCOC(=O)/N=C(\NCCCCN)NC(=O)OCC.Cl [J-8, 4-(2,3-bis(ethoxycarbonyl)guanidino)butan-1-aminium chloride] | – | prevented the development of opioid analgesic tolerance | prevented the development of opioid analgesic tolerance | no impact | – | – | – | motor impairment (nerve-injured mice [4]; early side effects studies): no impact; hindpaw withdrawal thresholds (von Frey) ([6]; IV, five doses 0.045, 0.0135, 0.45, 1.35, 4.5 micromoles/kg (approximately 1-100 mg/kg), induction phase): the hindpaw withdrawal thresholds elevated significantly toward control levels of responding in a dose-dependent manner
4 | CC(=O)NCCCCN/C(=N\C(=O)OC(C)(C)C)NC(=O)OC(C)(C)C [J-4, 4-(2,3-bis(tert-butyloxycarbonyl)guanidino)butylacetamide] | – | – | prevented the development of opioid analgesic tolerance | no impact on cardiovascular measures | did not impact rotarod performance | the hindpaw withdrawal thresholds elevated toward control levels of responding | – | preference for active versus control lever (oxycodone) (female mice; intraperitoneal (IP) injection prior to session (FIG. 6B)): showed greatly reduced preference for the active versus the control lever; preference for active versus control lever (oxycodone) (female mice; intravenous injections, 30 mg/kg, six injections over 8 days): showed little preference for the lever after injections were initiated; reduction of established neuropathic pain compared with agmatine at the same dose ([6]; IV, 1.35 micromoles/kg, maintenance phase for J-4 (FIG. 2F vs 2B)): distinctly greater than that of agmatine at the same dose
5 | CCOC(=O)/N=C(/N)NCCCCNC(=O)OCC [J-1, ethyl (amino((4-((ethoxycarbonyl)amino)butyl)amino)methylene)carbamate] | – | – | – | – | – | – | reduces or prevents the development of systemic morphine tolerance | development of opioid analgesic tolerance to ENDO-2 (mice [3]; systemically, dose range of 1-30 mg/kg): did not prevent the development of opioid analgesic tolerance; development of central morphine tolerance (mice [2]; intrathecal co-administration with morphine (FIG. 7A)): prevented the development of central morphine tolerance; ED50 (nmol, i.t.) (mice [2]; [9]): 2.86 (2.41, 3.40) nmol; ED50 (nmol, i.t.) (mice [2]; morphine i.t. ED50 (interval in brackets) after pre-treatment Saline + compound (10 nmol, i.t.) b.i.d. 3 days): 3.82 (2.95, 4.94) nmol; time to onset of effect compared to agmatine ([6]; mouse, in vivo): significantly earlier time to onset of effect
6 | CCOC(=O)NCCCCNC(=N)N [J-2, ethyl (4-guanidinobutyl)carbamate] | prevented the development of opioid analgesic tolerance | prevented the development of opioid analgesic tolerance | – | – | – | – | reduces or prevents the development of systemic morphine tolerance | –
7 | N=C(N)NCCCCN [agmatine, 1-(4-aminobutyl)guanidine, reference compound] | – | protected against the induction of opioid tolerance | – | – | did not impact rotarod performance | the hindpaw withdrawal thresholds elevated toward control levels of responding | reduces or prevents the development of systemic morphine tolerance | heroin-induced self-administration (rats): diminishes heroin-induced self-administration in rats; impact on cardiovascular measures [7]: no impact on cardiovascular measures; rotarod performance (nerve-injured mice [8]): does not impact rotarod performance
8 | CC(=O)NCCCCNC(=N)N [J-5, N-(4-guanidinobutyl)acetamide] | prevented the development of opioid analgesic tolerance | prevented the development of opioid analgesic tolerance | – | – | – | – | – | –
9 | CCOC(=O)/N=C(/N)NCCCCNC(C)=O [J-6] | prevented the development of opioid analgesic tolerance | prevented the development of opioid analgesic tolerance | – | – | – | – | – | –
10 | CCOC(=O)/N=C(\NCCCCNC(C)=O)NC(=O)OCC [J-3] | – | prevented the development of opioid analgesic tolerance | prevented the development of opioid analgesic tolerance | no impact on cardiovascular measures | did not impact rotarod performance | the hindpaw withdrawal thresholds elevated toward control levels of responding | – | response compared to the response of agmatine ([6]; IV, 0.45, 1.35, 4.5 micromoles/kg): No significant difference
